Some test systems named below: HCC 2998; SR; IGROV-1; BT-549; HCT-15; MCF7; PC-3; UACC-62; SN12C; DU-145; NCI-H226; SNB-19; OVCAR-5; MDA-MB-231; U-251; Malme-3M; COLO 205; UACC-257; NCI-H460; SK-MEL-5.
What all share (assay): NCI tumour cell line growth inhibition, 48 h

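How tested: cells in 96-well plates exposed to compound for 48 hours at five concentrations. GI50 = concentration required for 50% inhibition of growth.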 The source made the active and inactive calls. Rule as the data show it: active = GI50 up to about 1.1 µM and inactive = higher.

In the case of `O=C(/C=C/c1ccc(OCCSCCCCCCCCCCSCCOc2ccc(/C=C/C(=O)c3ccc(Cl)cc3)cc2)cc1)c1ccc(Cl)cc1`, the GI50 in the test with HCC 2998 was > 100 µM (inactive); in the test with SR, > 92.7 µM (inactive); with IGROV-1 it was > 100 µM (inactive); in the test with BT-549, > 100 µM (inactive); with HCT-15 it was above 100 µM; in the test with MCF7, > 100 µM (inactive). For the same molecule, the GI50 with PC-3 was > 100 µM (inactive); in the test on UACC-62 it was > 80.9 µM (inactive); in the test on SN12C, > 100 µM (inactive); in the test with DU-145, > 100 µM (inactive); with NCI-H226, > 76.2 µM (inactive); with SNB-19 it was > 74.3 µM (inactive). The GI50 with OVCAR-5 was > 100 µM (inactive); in the test on MDA-MB-231 it was > 100 µM (inactive); in the test on U-251 it was 65.8 µM (inactive); in the test with Malme-3M, > 100 µM (inactive); with COLO 205 it was > 100 µM (inactive); in the test on UACC-257, > 100 µM (inactive). Besides, the GI50 in the test on NCI-H460 and in the test on SK-MEL-5 was > 100 µM (inactive) throughout.
`CC12ON(P(=O)(c3ccccc3)c3ccccc3)C(C)(c3ccccc31)c1ccccc12`: the GI50 in the test with HCC 2998 is > 100 µM (inactive); in the test with SR, 46.1 µM (inactive); in the test with IGROV-1, > 100 µM (inactive); in the test on BT-549, > 100 µM (inactive); in the test with HCT-15 it was above 100 µM; in the test with MCF7, 0.675 µM (active). In addition, the GI50 in the test with PC-3, with UACC-62, in the test with SN12C, in the test with DU-145, in the test on NCI-H226 and with SNB-19 was > 100 µM (inactive) in each case. The GI50 in the test on OVCAR-5, in the test on MDA-MB-231, in the test on U-251, in the test on Malme-3M, in the test on COLO 205 and with UACC-257 was > 100 µM (inactive) in each case. Moreover, the GI50 in the test with NCI-H460 was 67.5 µM (inactive); in the test on SK-MEL-5, > 100 µM (inactive).
For `COc1ccc(/N=N/C(=O)NC(CC(C)C)C(N)=O)cc1` (stereo not given), the GI50 in the test on HCC 2998 is > 31 µM (inactive); in the test on SR it was 5.64 µM (inactive); in the test on IGROV-1, > 100 µM (inactive); with BT-549, 47.1 µM (inactive); in the test with HCT-15, above 24.4 µM; in the test with MCF7, 24.3 µM (inactive). The GI50 in the test with PC-3 was > 100 µM (inactive); with UACC-62, 6.92 µM (inactive); in the test on SN12C it was > 31.6 µM (inactive); with DU-145, 49.1 µM (inactive); in the test with NCI-H226 it was > 94.4 µM (inactive); in the test on SNB-19, > 100 µM (inactive). Also, the GI50 in the test on OVCAR-5 is > 100 µM (inactive); in the test with MDA-MB-231 it was > 31.6 µM (inactive); in the test with U-251, > 100 µM (inactive); in the test with Malme-3M, > 100 µM (inactive); in the test with COLO 205, 15.3 µM (inactive); with UACC-257, 23.6 µM (inactive). The results for the GI50 with NCI-H460 and in the test with SK-MEL-5 were 11.6 µM (inactive) and > 62.4 µM (inactive), respectively.
Regarding `C/C(=N\NC(=S)Nc1ccccc1)c1nc2cccnc2[nH]1`, the GI50 in the test on HCC 2998 was 2.91 µM (inactive); in the test on SR, 0.766 µM (active); with IGROV-1, 3.48 µM (inactive); with BT-549 it was 5.26 µM (inactive); in the test with HCT-15, 2.66 µM; with MCF7 it was 0.338 µM (active). The GI50 was 3.4 µM (inactive) in the test with PC-3; 2.85 µM (inactive) in the test on UACC-62; 4.33 µM (inactive) in the test with SN12C; 2.84 µM (inactive) in the test on DU-145; 2.59 µM (inactive) in the test with NCI-H226; 5.96 µM (inactive) in the test with SNB-19. Also, the GI50 with OVCAR-5 is 4.79 µM (inactive); with MDA-MB-231, 1.06 µM (active); in the test with U-251, 2.49 µM (inactive); in the test with Malme-3M, 2.18 µM (inactive); with COLO 205 it was 3.78 µM (inactive); in the test with UACC-257, 2.18 µM (inactive). The GI50 with NCI-H460 was 1.54 µM (inactive); in the test on SK-MEL-5, 2.69 µM (inactive).
With `CN1CCN(C(=O)CCC(=O)Nc2cc3c(c4ccccc24)-c2ccc4ccccc4c2C3)CC1`, the GI50 was 1.37 µM (inactive) in the test on HCC 2998; 1.79 µM (inactive) with SR; 1.15 µM (inactive) in the test on IGROV-1; 1.35 µM (inactive) with BT-549; 1.82 µM with HCT-15; 1.51 µM (inactive) in the test on MCF7. The GI50 in the test with PC-3 was 1.64 µM (inactive); in the test on UACC-62 it was 1.7 µM (inactive); in the test with SN12C, 1.79 µM (inactive); with DU-145 it was 1.77 µM (inactive); in the test on NCI-H226, 1.76 µM (inactive); in the test on SNB-19 it was 2.14 µM (inactive). Also, the GI50 with OVCAR-5 was 1.67 µM (inactive); in the test on MDA-MB-231, 1.26 µM (inactive); with U-251, 2.04 µM (inactive); in the test on Malme-3M, 2.03 µM (inactive); in the test on COLO 205 it was 1.6 µM (inactive); in the test on UACC-257 it was 1.74 µM (inactive). Also, the figures for the GI50 with NCI-H460 and in the test on SK-MEL-5 were 1.82 µM (inactive) and 1.6 µM (inactive), respectively.

The values above are taken from ChEMBL document CHEMBL1201862, “PubChem BioAssay data set” (2004).
